Test results from patent US20260274828A1, “BROAD SPECTRUM ANTIFUNGAL KETO-ALKYL-PYRIDINIUM COMPOUNDS” (priority 2023, published 2026).
Entries after “also recorded” stand apart in the source; their conditions may differ.

Columns and labels:
C. auris [1] = details: cited from earlier work
C. albicans [2] = test: Checkerboard assay with clinical antifungals (FICI); assay type: cell-based, Candida albicans; details: for MIC: Candida albicans, read-out: MICA (MIC of each drug alone)
Procedure: (§1) To determine if compounds interacted with clinically used antifungal drugs, checkerboard assays were performed and fractional inhibitory concentration indices were determined. […] The FICI for compound B and fluconazole is 8.25 due to the 8-fold increase in fluconazole concentration in the combination; however, the concentration of compound B at FIC is reduced by 4-fold relative to compound B as a single agent (Table 3).

C. albicans [3] = test: Planktonic MIC, CLSI guidelines; assay type: cell-based, Candida albicans; details: data not shown
HepG2 cells = test: Mammalian cell culture toxicity assay (LDH release and XTT); assay type: cell-based, human
Procedure: HepG2 cells (ATCC, #) were maintained and cultured in HepG2 media (DMEM (Gibco, Cat #11965-092) with 5% FBS, 20 mM Glutamine, and Penicillin/Streptomycin) at 37° C. with 5% CO2. Cells were seeded in 96-well plates at a density of 1.25×10^4 cells/well and incubated overnight at 37° C. with 5% CO2, then media was removed and replaced with media containing a two-fold dilution series of compounds with equal DMSO concentrations across all wells including no compound controls. Cells were incubated for an additional 24 hours. Supernatant was removed and used to quantify lactate dehydrogenase release using the CyQuant LDH assay kit (Invitrogen, Cat #C20300) following the manufacturer's directions. LDH signal was normalized to a max lysis control. The remaining cells were then used to quantify cellular metabolism by XTT. Briefly, cells were washed, then 0.9 mg/mL XTT (Sigma, CAT #X4626)+320 μg/mL PMS ([…] methosulfate; Sigma, Cat #P9625) in HepG2 media was added to each well. Plates were incubated at 37° C., with 5% CO2 for 2 hours, then absorbance was measured at 490 nm.

C. albicans [4] = test: Planktonic MIC, CLSI guidelines; assay type: cell-based, Candida albicans
Procedure: (§2) Minimum inhibitory concentrations were determined using CLSI guidelines (Beattie & Krysan, 2021; Wiederhold, 2021). All yeasts were cultured overnight in 3 mL YPD at 30° C., then washed twice in sterile PBS. Two-fold serial dilutions of each compound were prepared in RMPI+MOPS pH 7 (Gibco RPMI 1640 with L-glutamine [11875-093] and 0.165M 352 MOPS), then 1×10^3 cells were added per well. Plates were incubated at 37° C. for 24 hours (C. albicans and S. cerevisiae) or 72 hours (C. neoformans). For A. fumigatus and F. oxysporum wells were inoculated with 1.25×10^4 conidia. Plates were incubated at 37° C. for 48 hours for A. fumigatus and 72 hours for F. oxysporum. All MICs are defined as the well with complete growth inhibition as determined by visual inspection with the exception of MICs of fluconazole against C. albicans where the MIC is defined as at least 50% reduction in growth compared to the control.

[5] = test system: A. fumigatus CEA10 hyphal cells; test: Propidium iodide staining and DIC imaging of hyphae; assay type: cell-based, Aspergillus fumigatus; details: 16 μg/mL, 24 hours
Description: (§3) CLSI testing of antifungal activity of molds is based on inoculation with conidia and, therefore, measures inhibition of germination (Widerhold, 2021). For example, voriconazole is the gold standard for treatment of pulmonary infection and inhibits germination. The most important A. fumigatus infection that requires non-systemic therapy is fungal keratitis (Hoffman et al., 2022). At the time of clinical presentation, A. fumigatus is exclusively in the hyphal form. […] A. fumigatus CEA10 was incubated for 24 hours prior to exposure to a dilution series of compound B or C for an additional 24 hours. The metabolic activity of the cultures was determined using resazurin as previously described (Mao et al., 2020). […] To further characterize the mode of action of the KAPs against A. fumigatus hyphae, CEA10 was treated with compound B for 24 hours and then the cells were stained with propidium iodide, a dye that is excluded from cells with intact membranes (FIG. 2D).

red blood cells = test: Red blood cell lysis assay; assay type: cell-based, sheep; details: 2 h, normalized to max lysis by triton-x
Procedure: Hemolysis assays were performed with defibrinated sheep's blood (Lampire, Cat #7239001). Blood was washed three times with PBS then resuspended to about 50% hematocrit in PBS. A two-fold dilution series of the compounds in 200 μL PBS with equal DMSO concentration across the series, then red blood cells were added with a final concentration of 2% hematocrit. Cells were incubated at RT for 2 hours in a v-bottom microtiter plate, then plates were spun down and supernatant was transferred to a flat bottom microtiter plate for absorbance measurement at 570 nm. Compounds were tested in technical triplicate in at least two independent assays performed on different days.

S. aureus = test: Antibacterial MIC; assay type: cell-based; details: Staphylococcus aureus; strain Newman
A. fumigatus [6] = test: Planktonic MIC, CLSI guidelines; assay type: cell-based; details: Aspergillus fumigatus
Procedure: as §2

C. glabrata = test: Planktonic MIC, CLSI guidelines; assay type: cell-based; details: Nakaseomyces glabratus; strain KK2001
Procedure: as §2

F. oxysporum = test: Planktonic MIC, CLSI guidelines; assay type: cell-based; details: Fusarium oxysporum; strain DUMC Fo
Procedure: as §2

C. neoformans = test: Planktonic MIC, CLSI guidelines; assay type: cell-based; details: Cryptococcus neoformans
Procedure: as §2

C. auris [7] = test: Planktonic MIC, CLSI guidelines; assay type: cell-based, Candida auris; details: Candidozyma auris
Procedure: as §2

A. fumigatus [8] = test: Checkerboard assay with clinical antifungals (FICI); assay type: cell-based, Aspergillus fumigatus; details: for MIC: Aspergillus fumigatus, read-out: MICA (MIC of each drug alone); for MIC / MICC (MIC in combination): checkerboard B x Voriconazole
Procedure: as §1

P. aeruginosa = test: Antibacterial MIC; assay type: cell-based, Pseudomonas aeruginosa
[9] = test system: A. fumigatus CEA10 hyphae; test: Metabolic activity of hyphae/biofilms (resazurin); assay type: cell-based; details: Aspergillus fumigatus, CEA10HYPHAE, 24 h pre-incubation, 24 h exposure, read-out: hyphal metabolic activity IC50
Description: as §3

[10] = test system: medically important yeasts and molds; test: Antifungal activity, general statements; assay type: cell-based
Procedure: as §2

C. albicans [11] = details: Yamashita et al., 2019; cited from earlier work
human cell lines = details: Kim et al., 2021; cited from earlier work
[12] = checkerboard B x Amphotericin B
[13] = Candida albicans, C. albicans SC5314, Table 4, read-out: C. albicans MIC
[14] = A. fumigatus CEA10, Table 4, read-out: A. fumigatus MIC

[H]/N=C(\N/C(=N/[H])NCCCCCCNC(=N)NC(=N)Nc1ccc(Cl)cc1)Nc1ccc(Cl)cc1 [2% chlorhexidine, chlorhexidine]
reduction of fungal burden of colonized porcine skin (C. auris [1]; 72 hour experiment, three daily applications, Johnson et al., 2021): about 0.5 log10

C[C@@H]1[C@H](O)[C@@H](C)/C=C/C=C/C=C/C=C/C=C/C=C/C=C/[C@H](O[C@@H]2O[C@H](C)[C@@H](O)[C@H](N)[C@@H]2O)C[C@@H]2O[C@](O)(C[C@@H](O)C[C@@H](O)[C@H](O)CC[C@@H](O)C[C@@H](O)CC(=O)O[C@H]1C)C[C@H](O)[C@H]2C(=O)O [Amphotericin B, reference compound]
MICA (MIC of each drug alone) (C. albicans [2]; [12]): 0.5 µg/mL | MICC (MIC in combination) (C. albicans [2]; [12]): 0.25 µg/mL

Cc1cc[n+](CC(=O)c2ccc(-c3ccc(Oc4ccccc4)cc3)cc2)cc1.[Br-] [Compound B]
change in MIC with glycerol instead of glucose as carbon source (C. albicans [3]): not observed | LD50, cell lysis assay (HepG2 cells; HepG2, LDH release, 24 h): 9 µg/mL | LD50, metabolic activity assay (HepG2 cells; HepG2, XTT, 24 h): 20 µg/mL | LD50, toxicity against human cell lines (HepG2 cells; readout not given): 20 µg/mL | MIC (C. albicans [4]; Candida albicans, strain SC5314, read-out: MIC): 8 µg/mL | MIC (C. albicans [4]; Candida albicans, strain TWO #15, fluconazole-resistant, read-out: MIC): 4 µg/mL | MIC (C. albicans [4]; strain TWO #17, fluconazole-resistant): 4 µg/mL | DIC images of hyphae [5]: loss of refractivity and fragmentation of hyphae | propidium iodide staining [5]: uniform uptake of dye | red blood cell lysis LD50 (red blood cells): 78.6 µg/mL | MIC (S. aureus): 16 µg/mL | MIC (A. fumigatus [6]; strain AF293, read-out: MIC): 1 µg/mL | MIC (A. fumigatus [6]; strain CEA10, read-out: MIC): 8 µg/mL | MIC (A. fumigatus [6]; strain Cas^R, read-out: MIC): 16 µg/mL | MIC (A. fumigatus [6]; strain SPF98, read-out: MIC): 16 µg/mL | MIC (C. glabrata): 1 µg/mL | MIC (F. oxysporum): 16 µg/mL | MIC (C. neoformans; strain DUMC 118.00): 2 µg/mL | MIC (C. neoformans; strain DUMC 122.01): 4 µg/mL | MIC (C. neoformans; strain H99): 2 µg/mL | FICI (C. albicans [2]; B with Amphotericin B): 0.75 | FICI (C. albicans [2]; B with Fluconazole): 8.25 | MIC (C. albicans [2]; [12]): 4 µg/mL | MIC (C. albicans [2]; checkerboard B x Fluconazole): 16 µg/mL | MICC (MIC in combination) (C. albicans [2]; [12]): 1 µg/mL | MICC (MIC in combination) (C. albicans [2]; checkerboard B x Fluconazole): 4 µg/mL | reduction of concentration at FIC relative to single agent (C. albicans [2]; combination with fluconazole): 4 fold | interaction with clinical antifungal (C. albicans [2]; with amphotericin B): indifferent (2 < FICI < 4 = indifferent) | interaction with clinical antifungal (C. albicans [2]; with caspofungin): indifferent (2 < FICI < 4 = indifferent) | interaction with clinical antifungal (C. albicans [2]; with fluconazole): antagonistic | MIC (C. auris [7]; strain 0381, drug susceptible): 16 µg/mL | MIC (C. auris [7]; strain 0390, multi-drug resistant): 4 µg/mL | MIC (A. fumigatus [8]): 16 µg/mL | FICI (A. fumigatus [8]; B with Voriconazole): 0.625 | MICC (MIC in combination) (A. fumigatus [8]): 2 µg/mL | interaction with clinical antifungal (A. fumigatus [8]; with voriconazole): indifferent (2 < FICI < 4 = indifferent) | activity compared to cetylpyridinium chloride (P. aeruginosa; P. aeruginosa): more active | MIC (P. aeruginosa; Pseudomonas aeruginosa, strain PAO1): 32 µg/mL | IC50 [9]: 3.9 µg/mL

COc1ccc(F)c(-c2ccc(C(=O)C[n+]3ccc(N)cc3)cc2)c1.[Br-] [Compound C]
red blood cell lysis LD50 (red blood cells): > 1000 µg/mL | antifungal activity [10]: inactive; also recorded: no antifungal activity

N=C(N)c1ccc(OCCCC2CCN(CCCOc3ccc(C(=N)N)cc3)CC2)cc1 [Compound T-2307]
MIC on 2% glycerol compared to 2% dextrose (C. albicans [11]): decreases dramatically

OC(Cn1cncn1)(Cn1cncn1)c1ccc(F)cc1F [Fluconazole, reference compound]
MIC (C. albicans [2]; checkerboard B x Fluconazole): 0.125 µg/mL | MICC (MIC in combination) (C. albicans [2]; checkerboard B x Fluconazole): 1 µg/mL | increase in fluconazole concentration in the combination (C. albicans [2]; combination with compound B): 8 fold

Nc1cc[n+](CC(=O)c2ccc3c(c2)OC(c2cccc(C(F)(F)F)c2)(c2cccc(C(F)(F)F)c2)O3)cc1.[Cl-] [KAP-1]
MIC (C. albicans [4]; [13]): 1 µg/mL | MIC (A. fumigatus [6]; [14]): 16 µg/mL

Cc1ccc(-c2ccc(C(=O)C[n+]3ccc(N)cc3)cc2)c2ccccc12.[Cl-] [KAP-2]
MIC (C. albicans [4]; [13]): 8 µg/mL | MIC (A. fumigatus [6]; [14]): 16 µg/mL

Cc1cc[n+](CC(=O)c2ccc(-c3ccc(Oc4ccccc4)cc3)cc2)cc1.[Cl-] [KAP-3]
MIC (C. albicans [4]; [13]): 4 µg/mL | MIC (A. fumigatus [6]; [14]): 8 µg/mL

Cc1cc[n+](CC(=O)c2ccc(-c3ccc(Oc4ccc(F)cc4)cc3)cc2)cc1.[Cl-] [KAP-4]
MIC (C. albicans [4]; [13]): 4 µg/mL | MIC (A. fumigatus [6]; [14]): 16 µg/mL

Nc1cc[n+](CC(=O)c2ccc(Oc3ccccc3)cc2)cc1.[Cl-] [KAP-5]
MIC (A. fumigatus [6]; [14]): > 64 µg/mL

C[C@@H](c1ncncc1F)[C@](O)(Cn1cncn1)c1ccc(F)cc1F [Voriconazole, reference compound]
MIC (A. fumigatus [8]): 0.25 µg/mL | MICC (MIC in combination) (A. fumigatus [8]): 0.125 µg/mL

CCCCCCCCCCCCCCCC[n+]1ccccc1 [cetylpyridinium chloride]
LD50, toxicity against human cell lines (human cell lines): 6 µg/mL

N=C(NCCCCCCNC(=N)NC(=N)Nc1ccc(Cl)cc1)NC(=N)Nc1ccc(Cl)cc1.O=C(O)[C@H](O)[C@@H](O)[C@H](O)[C@H](O)CO.O=C(O)[C@H](O)[C@@H](O)[C@H](O)[C@H](O)CO [chlorhexidine gluconate]
activity against C. auris colonization of skin (C. auris [1]; comparison stated in Example 2): minimally active
